Test results from patent US9113629B2, “4-amino-6-(4-substituted-phenyl)-picolinates and 6-amino-2-(4-substituted-phenyl)-pyrimidine-4-carboxylates and their use as herbicides” (DOW AGROSCIENCES LLC, priority 2013, dated 2015).
Like-named read-outs stand apart in the source and are kept apart here.

How the values were obtained:
[1] = tested on: Key Broadleaf Weed and Crop Species; assay: Post-emergent Test II herbicidal activity (Table 5); type: in vivo; details: post-emergence, 336 h, 14 days after application; for pest or weed control at 70 g/ha: application rate 70 g ai/ha; for pest or weed control at 140 g/ha: application rate 140 g ai/ha
How it was run: (§1)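 Visual injury ratings (0 = no injury, 100 = complete kill) were taken 14 d after treatment, relative to untreated plants. Seedlings at the first–second true leaf stage received overhead spray at 187 L/ha; the highest rate was serially diluted to ½×, ¼×, ⅛× and 1/16×.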

[2] = tested on: Key Grass and Sedge Weeds as well as Grass Crops; assay: Post-emergent Test II herbicidal activity (Table 6); type: in vivo; details: post-emergence, 336 h; for pest or weed control at 70 g/ha: 70 g ai/ha; for pest or weed control at 140 g/ha: 140 g ai/ha
How it was run: as §1

[3] = ABUTH: velvetleaf (Abutilon theophrasti), read-out: Visual Growth Reduction (%) 14 Days After Application, ABUTH
[4] = AMARE: redroot pigweed (Amaranthus retroflexus), read-out: Visual Growth Reduction (%) 14 Days After Application, AMARE
[5] = BRSNN: oilseed-rape, canola (Brassica napus), read-out: Visual Growth Reduction (%) 14 Days After Application, BRSNN
[6] = CHEAL: lambsquarters (Chenopodium album), read-out: Visual Growth Reduction (%) 14 Days After Application, CHEAL
[7] = EPHHL: wild poinsettia (Euphorbia heterophylla), read-out: Visual Growth Reduction (%) 14 Days After Application, EPHHL
[8] = HELAN: sunflower (Helianthus annuus), read-out: Visual Growth Reduction (%) 14 Days After Application, HELAN
[9] = VIOTR: wild pansy (Viola tricolor), read-out: Visual Growth Reduction (%) 14 Days After Application, VIOTR
[10] = CYPES: yellow nutsedge (Cyperus esculentus), read-out: Visual Growth Reduction (%) 14 Days After Application, CYPES
[11] = DIGSA: crabgrass (Digitaria sanguinalis), read-out: Visual Growth Reduction (%) 14 Days After Application, DIGSA
[12] = ECHCG: barnyardgrass (Echinochloa crus-galli), read-out: Visual Growth Reduction (%) 14 Days After Application, ECHCG
[13] = ORYSA: rice (Oryza sativa), crop, read-out: Visual Growth Reduction (%) 14 Days After Application, ORYSA
[14] = SETFA: giant foxtail (Setaria faberi), read-out: Visual Growth Reduction (%) 14 Days After Application, SETFA
[15] = SORVU: grain sorghum (Sorghum vulgare), read-out: Visual Growth Reduction (%) 14 Days After Application, SORVU
[16] = TRZSS (wheat, Triticum aestivum), crop, read-out: Visual Growth Reduction (%) 14 Days After Application, TRZSS
[17] = ZEAMX: maize, corn (Zea mays), crop, read-out: Visual Growth Reduction (%) 14 Days After Application, ZEAMX

SMILES | pest or weed control at 70 g/ha [1, 3] [%] | pest or weed control at 140 g/ha [1, 3] [%] | pest or weed control at 70 g/ha [1, 4] [%] | pest or weed control at 140 g/ha [1, 4] [%] | pest or weed control at 70 g/ha [1, 5] [%] | pest or weed control at 140 g/ha [1, 5] [%] | pest or weed control at 70 g/ha [1, 6] [%] | pest or weed control at 140 g/ha [1, 6] [%] | pest or weed control at 70 g/ha [1, 7] [%] | pest or weed control at 140 g/ha [1, 7] [%] | pest or weed control at 70 g/ha [1, 8] [%] | pest or weed control at 140 g/ha [1, 8] [%] | pest or weed control at 70 g/ha [1, 9] [%] | pest or weed control at 140 g/ha [1, 9] [%] | pest or weed control at 70 g/ha [2, 10] [%] | pest or weed control at 140 g/ha [2, 10] [%] | pest or weed control at 70 g/ha [2, 11] [%] | pest or weed control at 140 g/ha [2, 11] [%] | pest or weed control at 70 g/ha [2, 12] [%] | pest or weed control at 140 g/ha [2, 12] [%] | other results
COc1c(N)nc(-c2ccc(Br)cc2F)nc1C(=O)O [Compound 46] | 95 to 100 | 95 to 100 | 85 to 94 | 95 to 100 | 95 to 100 | 95 to 100 | 95 to 100 | 95 to 100 | 95 to 100 | 95 to 100 | 85 to 94 | 95 to 100 | 45 to 59 | 95 to 100 | 95 to 100 | 95 to 100 | 45 to 59 | 60 to 74 | 85 to 94 | 85 to 94 | pest or weed control at 70 g/ha [2, 13]: 0 to 29%; pest or weed control at 140 g/ha [2, 13]: 0 to 29%; pest or weed control at 70 g/ha [2, 14]: 75 to 84%; pest or weed control at 140 g/ha [2, 14]: 85 to 94%; pest or weed control at 70 g/ha [2, 15]: 45 to 59%; pest or weed control at 140 g/ha [2, 15]: 60 to 74%; pest or weed control at 70 g/ha [2, 16]: 45 to 59%; pest or weed control at 140 g/ha [2, 16]: 60 to 74%; pest or weed control at 70 g/ha [2, 17]: 45 to 59%; pest or weed control at 140 g/ha [2, 17]: 45 to 59%; melting point: 133 to 135 °C
C#Cc1ccc(-c2nc(C(=O)O)c(Cl)c(N)c2F)c(F)c1F [Compound 50] | 60 to 74 | 60 to 74 | 0 to 29 | 0 to 29 | 0 to 29 | 0 to 29 | 0 to 29 | 0 to 29 | 45 to 59 | 95 to 100 | 45 to 59 | 60 to 74 | 0 to 29 | 0 to 29 | 0 to 29 | 0 to 29 | 0 to 29 | 45 to 59 | 45 to 59 | 75 to 84 | pest or weed control at 70 g/ha [2, 13]: 0 to 29%; pest or weed control at 140 g/ha [2, 13]: 0 to 29%; pest or weed control at 70 g/ha [2, 14]: 30 to 44%; pest or weed control at 140 g/ha [2, 14]: 45 to 59%; pest or weed control at 70 g/ha [2, 15]: 0 to 29%; pest or weed control at 140 g/ha [2, 15]: 0 to 29%; pest or weed control at 70 g/ha [2, 16]: 0 to 29%; pest or weed control at 140 g/ha [2, 16]: 0 to 29%; pest or weed control at 70 g/ha [2, 17]: 95 to 100%; pest or weed control at 140 g/ha [2, 17]: 95 to 100%; melting point: 174 to 176 °C
COC(=O)c1nc(-c2ccc(Br)cc2F)c(F)c(N)c1Cl [Compound 52] | 95 to 100 | 95 to 100 | 95 to 100 | 95 to 100 | 95 to 100 | 95 to 100 | 95 to 100 | 95 to 100 | 95 to 100 | 95 to 100 | 95 to 100 | 95 to 100 | 95 to 100 | 95 to 100 | 95 to 100 | 95 to 100 | 85 to 94 | 85 to 94 | 60 to 74 | 75 to 84 | pest or weed control at 70 g/ha [2, 13]: 0 to 29%; pest or weed control at 140 g/ha [2, 13]: 0 to 29%; pest or weed control at 140 g/ha [2, 14]: 85 to 94%; pest or weed control at 70 g/ha [2, 15]: 95 to 100%; pest or weed control at 140 g/ha [2, 15]: 95 to 100%; pest or weed control at 70 g/ha [2, 16]: 30 to 44%; pest or weed control at 140 g/ha [2, 16]: 30 to 44%; pest or weed control at 70 g/ha [2, 17]: 95 to 100%; pest or weed control at 140 g/ha [2, 17]: 95 to 100%; melting point: 146 to 148 °C
C#Cc1ccc(-c2nc(N)c(OC)c(C(=O)OC)n2)c(F)c1 [Compound 59] | 0 to 29 | 0 to 29 | 0 to 29 | 0 to 29 | 30 to 44 | 45 to 59 | 0 to 29 | 60 to 74 | 0 to 29 | 0 to 29 | 60 to 74 | 60 to 74 | 0 to 29 | 0 to 29 | 0 to 29 | 0 to 29 | 0 to 29 | 0 to 29 | 0 to 29 | 0 to 29 | pest or weed control at 70 g/ha [2, 13]: 0 to 29%; pest or weed control at 140 g/ha [2, 13]: 0 to 29%; pest or weed control at 70 g/ha [2, 14]: 0 to 29%; pest or weed control at 140 g/ha [2, 14]: 0 to 29%; pest or weed control at 70 g/ha [2, 15]: 0 to 29%; pest or weed control at 140 g/ha [2, 15]: 0 to 29%; pest or weed control at 70 g/ha [2, 16]: 0 to 29%; pest or weed control at 140 g/ha [2, 16]: 0 to 29%; pest or weed control at 70 g/ha [2, 17]: 0 to 29%; pest or weed control at 140 g/ha [2, 17]: 0 to 29%; melting point: 203 to 205 °C
